# Assays:
# [1] = Dairy cow feeding study: total indaziflam residue in milk and tissues after 29 consecutive days of dosing; format: in vivo, lactating Holstein dairy cows (Bos taurus)
# Method: A feeding study was conducted to measure total indaziflam residue in milk, cream (milk fat), skim milk (whey), mesenteric (omental) fat, perirenal fat, subcutaneous fat, liver, kidney, muscle and excrement (feces or faeces) from lactating Holstein dairy cows (Bos taurus) following 29 consecutive days of dosing with indaziflam. The base daily dose of indaziflam was calculated to be 31 mg/kg dry matter feed. Four groups of cows were fed at 0 (control—two cows), 31 (1×—three cows), […] (3×—three cows) and 311 (10×—seven cows) mg/kg dry matter feed.
# Milk was collected twice daily from all dose groups, morning and evening. Doses were administered after the morning milking. Milk was subsampled for analysis from the controls and all dose groups on study days 0, 2, 4, 7, 10, 14, 17, 21, 25, and 28. […]
# The remaining cows (one control and four from the 10× dose level) entered the depuration phase of the study. […] Milk, tissues and excrement from the cows sacrificed at each interval were analyzed to monitor the decline of the residues of indaziflam and its metabolites. […]
# The individual analyte derived residues were converted to indaziflam parent equivalents and summed to give a total indaziflam residue. The limit of quantitation (LOQ) for total indaziflam residue was 0.05 ppm for fat, kidney, muscle and liver. […]
# [2] = Ruminant metabolism studies with 14C-labelled indaziflam; format: in vivo, ruminants; settings: [triazine-2,4-14C] and [indane-3-14C] indaziflam
# Excerpt: Ruminant metabolism studies have been conducted with both [triazine-2,4-^14C] indaziflam and [indane-3-^14C] indaziflam according to current EPA guidelines. Accumulation into the edible tissues was low and the metabolism of indaziflam in ruminants is well understood.
# [3] = Human safety risk assessment (aggregate dietary and non-dietary exposure, current EPA practice); design: species or system US Population
# Excerpt: Human safety risk assessments have been conducted, using current EPA practice, for all the current and proposed new uses of indaziflam. Chronic aggregate dietary exposure (food and water) will utilize less than 4% of the cPAD for the US Population. Acute aggregate dietary exposure (food and water) for the U.S. population, utilizes 7% of the aPAD.
# [4] = pH 7; cited from earlier work
# cheatgrass = assay: Pre-emergence control of cheatgrass; format: in vivo, Bromus tectorum
# Excerpt: (§1) This provides land managers with a new opportunity to start the process of eliminating the annual grass seed bank. […] This makes indaziflam an effective tool to start the process of depleting the invasive annual grass soil seed bank. Furthermore, providing long-term control of annual grasses with indaziflam results in both reduced thatch that serves as fuel for highly destructive wildfires, and the effective creation of firebreaks that protect communities of desirable perennials. As a result, native ecosystems are promoted, allowing for increased habitat for animal species of concern including wildlife and pollinators.
# ventenata = assay: Pre-emergence control of ventenata; format: in vivo, Ventenata dubia
# Excerpt: as §1
# medusahead = assay: Pre-emergence control of medusahead; format: in vivo, Taeniatherum caput-medusae
# Excerpt: as §1
smiles,measurement,setting,value
"Cc1ccc2c(c1)[C@H](Nc1nc(N)nc(C(C)F)n1)[C@@H](C)C2 (mixture of isomers) [indaziflam, N2-[(1R,2S)-2,3-dihydro-2,6-dimethyl-1H-inden-1-yl]-6-[(1RS)-1-fluoroethyl]-1,3,5-triazine-2,4-diamine]",Average total indaziflam residues in muscle,"[1]; 1× rate, Day 29, LOQ 0.05 ppm",< LOQ
same,Residues in all tissues and milk in the depuration phase,"[1]; 10× dose cows, 3 to 21 days after end of dosing",declined rapidly
same,Accumulation into the edible tissues,[2],low
same,"Non-dietary and aggregate margins of exposure (food, drinking water, and non-dietary)",[3],above the Level of Concern
same,"Acute aggregate dietary exposure (food and water), utilization of the aPAD",[3]; U.S. population,7 % of the aPAD
same,"Chronic aggregate dietary exposure (food and water), utilization of the cPAD","[3]; US Population, all current and proposed new uses",less than 4 % of the cPAD
same,log Kow,[4],2.8
same,Pre-emergence effectiveness compared with imazapic,cheatgrass; cheatgrass,significantly more effective
same,Long-term control of cheatgrass,cheatgrass; single application,at least three years
same,Pre-emergence effectiveness compared with imazapic,ventenata,significantly more effective
same,Pre-emergence effectiveness compared with imazapic,medusahead,significantly more effective
